Experimental data reported in patent publication US20250066370A1, “BICYCLIC TRIAZINE DERIVATIVES FOR THE TREATMENT OF CANCER” (DEUTSCHES KREBSFORSCHUNGSZENTRUM, priority 2022, published 2025).

Assays:
Type in all cases: cell-based
HCC1419 = experiment: Proliferation assay: cell line panel, HCC1419; details: Homo sapiens, 96 h, breast cancer, HER2 positive, 4 days, read-out: Result Category, IC50 (mean)
Excerpt: (§1) Human tumour cells were originally obtained from the American Type Culture Collection (ATCC), from Cell Line Services GmbH (CLS), from the Deutsche Sammlung von Mikroorganismen und Zellkulturen (DSMZ, German Collection of Microorganisms and Cell Cultures), from the Japanese Cancer Research Resources Bank (JCRB), from Public Health England, from the European Collection of Authenticated Cell Cultures (ECACC), from Asterand Biosciences, or from the National Cancer Institute (NCI). Cultivated tumour cells were plated at the density as indicated in Table 6 in 96-well multitier plates in 200 microL of their respective growth medium supplemented 10% fetal calf serum. […] Cell proliferation was determined by staining the cells with crystal violet: the cells were fixed by adding 20 microL/measuring point of an 11% glutaric aldehyde solution for 15 minutes at room temperature. […] The extinction was determined by photometry at a wavelength of 595 nm. The change of cell number, in percent, was calculated by normalization of the measured values to the extinction values of the zero-point plate (=0%) and the extinction of the untreated (0 μM) cells (=100%). […]

AU565 = experiment: Proliferation assay: cell line panel, AU565; details: Homo sapiens, 96 h, breast cancer, HER2 positive, 4 days, read-out: Result Category, IC50 (mean)
Excerpt: as §1

MDA-MB-231 = experiment: Proliferation assay: cell line panel, MDA-MB-231; details: Homo sapiens, 96 h, breast cancer, triple-negative, 4 days, read-out: Result Category, IC50 (mean)
Excerpt: as §1

JHH-7 = experiment: Proliferation assay: cell line panel, JHH-7; details: Homo sapiens, JHH7, 96 h, liver cancer, 4 days, read-out: Result Category, IC50 (mean)
Excerpt: as §1

HCC1954 = experiment: Proliferation assay: cell line panel, HCC1954; details: Homo sapiens, 96 h, breast cancer, HER2 positive, 4 days, read-out: Result Category, IC50 (mean)
Excerpt: as §1

NCI-H1299 = experiment: Proliferation assay: cell line panel, NCI-H1299; details: Homo sapiens, 96 h, lung cancer, non-small cell, 4 days, read-out: Result Category, IC50 (mean)
Excerpt: as §1

CAL-120 = experiment: Proliferation assay: cell line panel, CAL-120; details: Homo sapiens, 96 h, breast cancer, triple-negative, 4 days, read-out: Result Category, IC50 (mean)
Excerpt: as §1

HCC1143 = experiment: Proliferation assay: cell line panel, HCC1143; details: Homo sapiens, 96 h, breast cancer, triple-negative, 4 days, read-out: Result Category, IC50 (mean)
Excerpt: as §1

MDA-MB-468 = experiment: Proliferation assay: cell line panel, MDA-MB-468; details: Homo sapiens, 96 h, breast cancer, triple-negative, 4 days, read-out: Result Category, IC50 (mean)
Excerpt: as §1

BT474 = experiment: Proliferation assay: cell line panel, BT474; details: Homo sapiens, BT-474, 96 h, breast cancer, HER2 positive, 4 days, read-out: Result Category, IC50 (mean)
Excerpt: as §1

FC(F)(F)Oc1ccc(-c2cnc(CNc3nc(N4CCOCC4)nn4c(C(F)(F)F)cnc34)[nH]2)cc1 [Example 8, 2-(morpholin-4-yl)-N-({5-[4-(trifluoromethoxy)phenyl]-1H-imidazol-2-yl}methyl)-7-(trifluoromethyl)imidazo[2,1-f][1,2,4]triazin-4-amine]
IC50 (HCC1419): 30 to 100 nM
IC50 (AU565): ≤ 30 nM
IC50 (MDA-MB-231): ≥ 100 nM
IC50 (JHH-7): 30 to 100 nM
IC50 (HCC1954): 30 to 100 nM
IC50 (NCI-H1299): ≥ 100 nM
IC50 (CAL-120): 30 to 100 nM
IC50 (HCC1143): ≥ 100 nM
IC50 (MDA-MB-468): 30 to 100 nM
IC50 (BT474): 30 to 100 nM

FC(F)(F)c1ccc(-c2cnc(CNc3nc(N4CCOCC4)nn4c(C(F)(F)F)cnc34)[nH]2)cc1 [Example 7, 2-(morpholin-4-yl)-7-(trifluoromethyl)-N-({5-[4-(trifluoromethyl)phenyl]-1H-imidazol-2-yl}methyl)imidazo[2,1-f][1,2,4]triazin-4-amine]
IC50 (HCC1419): 30 to 100 nM
IC50 (AU565): 30 to 100 nM
IC50 (MDA-MB-231): 30 to 100 nM
IC50 (JHH-7): ≥ 100 nM
IC50 (HCC1954): 30 to 100 nM
IC50 (NCI-H1299): ≥ 100 nM
IC50 (CAL-120): ≥ 100 nM
IC50 (HCC1143): ≥ 100 nM
IC50 (MDA-MB-468): 30 to 100 nM
IC50 (BT474): 30 to 100 nM
